# Test results taken from patent publication US20050148495A1, “Methods and materials including for treating acne” (priority 2003, published 2005).
# Read-outs that look alike come from different tables or passages of the source. Non-standard residues stand in square brackets, D forms with d. Residues, ends and D or L forms follow the SMILES beside them. d1Nal = N[C@H](Cc1cccc2ccccc12)C(=O)O
# Columns and labels:
# [1] = parameters: decrease of plasma levels within the first 12 hours: dose or concentration left out as unconfirmed; details: for T1/2α / T1/2β / T1/2γ / T1/4 average / Vc: Sinclair mini-pig
# Enterococcus hirae = Enterococcus hirae 9790
# Salmonella ryphimurium = assay: microbe, parasite or virus in culture; format: cell-based; details: Salmonella ryphimurium SL770
# Method: (§1) Acne vulgaris may involve a microbial consortium. Although P. acnes may be a prominent member of such a consortium, other uncharacterized bacteria may also participate. The microbial activity of XMP.629 as an acetate gel as described in Example 5 and other commonly used antibiotics was evaluated against a panel of human pathogens using standardized NCCLS protocols. […] Lesser potency was observed against the gram-negative organisms B. fragilis, B. cepacia, P. mirabilis and S. marcescens, which are often refractory to many antimicrobial compounds.
# Porphyromonas gingivalis = assay: microbe, parasite or virus in culture; format: cell-based; details: Porphyromonas gingivalis 33277
# Method: as §1
# Prevotella intermedia = assay: microbe, parasite or virus in culture; format: cell-based; details: Prevotella intermedia 25261
# Method: as §1
# Bacteroides fragilis = assay: microbe, parasite or virus in culture; format: cell-based; details: Bacteroides fragilis 25285
# Method: as §1
# Klebsiella pneumoniae = assay: microbe, parasite or virus in culture; format: cell-based
# Method: as §1
# [2] = test system: Actinobacillus actinomycetemcomitans; assay: microbe, parasite or virus in culture; format: cell-based; details: Actinobacillus actinomycetemcomitans 43718
# Method: as §1
# Escherichia coli = assay: microbe, parasite or virus in culture; format: cell-based
# Method: as §1
# Burkholderia cepacia = assay: microbe, parasite or virus in culture; format: cell-based; details: Burkholderia cepacia 25416
# Method: as §1
# Serratia marcescens = assay: microbe, parasite or virus in culture; format: cell-based
# Method: as §1
# Proteus mirabilis = assay: microbe, parasite or virus in culture; format: cell-based; details: Proteus mirabilis 29852
# Method: as §1
# [3] = test system: guinea pigs, Crl:(HA)BR (Albino Hartley); assay: Guinea pig sensitization (maximization) test; format: in vivo
# Method: A sensitization (maximization) study was performed to evaluate the potential of XMP.629 to elicit skin sensitization reactions, such as allergic contact dermatitis, in guinea pigs via intradermal injection and topical patch applications. Procedures for conducting dermal studies that determine the potential of substances to induce delayed contact hypersensitivity are well-known and are described, for example, in Magnusson, B. et al., Allergic Contact Dermatitis in the Guinea Pig, Charles C. Thomas Publishing, Springfield, Ill., 1970 and Klecak, G., “Test Methods for Allergic Contact Dermatitis in Animals”, Dermatoxicology, 5th Edition, Taylor & Francis Publishing, Washington D.C., pages 437-459, the disclosures of which are incorporated herein by reference. A total of forty two-month old guinea pigs, twenty male and twenty female, from the strain CrI:(HA)BR(Albino Hartley) were employed for the entire regimen of the sensitization study.
# First, a preliminary range-finding test was conducted to determine the test concentration of XMP.629 to be used in the second test, induction phase intradermal injection and topical patch application tests. The range-finding test was performed (i) intradermally on two guinea pigs (one male and one female) by injecting concentrations of 2, 4, 8, 16, and 20 mg/mL XMP.629; and (ii) topically on three guinea pigs (two males and one female) by administering patches containing concentrations of 5, 10, 15, and 20 mg/mL XMP.629. […] Topical patches were prepared by spreading a thick even layer of 0.4 mL of XMP.629 over a 2×2 cm of Whatman No.3 filter paper. Topical patches were applied to the torso of the guinea pig and covered by an overlapping plastic adhesive tape followed by additional wrapping tape. After a 24 hour exposure period, the patches were removed and the application sites were washed to removed any excess XMP.629 that may be present. […] Intradermal injection sites and topical application sites were evaluated using a sensitization grade rating. […] Each site could attain a maximum possible score of 3, as scored according to the rating listed below: • 0=No reaction • 1=Scattered mild erythema • 2=Moderate and diffuse erythema • 3=Intense erythema and edema
# The second induction phase test was conducted as a two-stage operation with intradermal injections initially being administered followed one week later by exposure to a closed patch. […] Following a period of 24 and 48 hours, evaluations of the injection area were recorded. […] Dermal irritation scores of one or higher were recorded for doses of 8 mg/mL of XMP.629.
# A third, challenge (maximization) test was performed two weeks (day 22) after initiation of the second, induction phase tests. […] Patches were sealed to the flanks for approximately 24 hours before observations were recorded.
# [4] = 0.05 mg/kg XMP.629 acetate short IV infusion
# [5] = 0.2 mg/kg XMP.629 acetate short IV infusion
compound,measurement,setting,value
"CC(C)C[C@@H](NC(=O)[C@H](N)CCCCN)C(=O)N[C@H](Cc1ccccc1)C(=O)N[C@H](CCCNC(=N)N)C(=O)N[C@H](Cc1cccc2ccccc12)C(=O)N[C@H](CCC(N)=O)C(=O)N[C@H](C)C(=O)N[C@H](CCCCN)C(=O)N[C@H](Cc1cccc2ccccc12)C(N)=O [XMP.629, NH2-lys-leu-phe-arg-(3-(1-naphthyl)-ala)-gln-ala-lys-(3-(1-naphthyl)-ala)-CONH2] (H-[dK][dL][dF][dR][d1Nal][dQ][dA][dK][d1Nal]-NH2)",T1/2α,[1]; [4],5.46 min
same,T1/2β,[1]; [4],1.28 h
same,T1/2γ,[1]; [4],15.0 h
same,T1/4 average,[1]; [4],0.36 h
same,Vc,[1]; [4],0.0674 L/kg
same,T1/2α,[1]; [5],1.86 min
same,T1/2β,[1]; [5],1.03 h
same,T1/2γ,[1]; [5],15.4 h
same,T1/4 average,[1]; [5],0.58 h
same,Vc,[1]; [5],0.1018 L/kg
same,decrease of plasma levels within the first 12 hours,[1]; short IV infusion,100 fold
same,Minimum Inhibitory Concentrations,Enterococcus hirae,2.00 µg/mL
same,Minimum Inhibitory Concentrations,Salmonella ryphimurium,4.00 µg/mL
same,Minimum Inhibitory Concentrations,Porphyromonas gingivalis,4.00 µg/mL
same,Minimum Inhibitory Concentrations,Prevotella intermedia,2.00 µg/mL
same,Minimum Inhibitory Concentrations,Bacteroides fragilis,16.0 µg/mL
same,Minimum Inhibitory Concentrations,Klebsiella pneumoniae; Klebsiella pneumoniae 19645,2.00 µg/mL
same,Minimum Inhibitory Concentrations,Klebsiella pneumoniae; Klebsiella pneumoniae 29011,8.00 µg/mL
same,Minimum Inhibitory Concentrations,[2],4.00 µg/mL
same,Minimum Inhibitory Concentrations,Escherichia coli; Escherichia coli 07:K1,4.00 µg/mL
same,Minimum Inhibitory Concentrations,Escherichia coli; Escherichia coli 0111:B4,2.00 µg/mL
same,Minimum Inhibitory Concentrations,Burkholderia cepacia,32.0 µg/mL
same,Minimum Inhibitory Concentrations,Serratia marcescens; Serratia marcescens 13880,64.0 µg/mL
same,Minimum Inhibitory Concentrations,Serratia marcescens; Serratia marcescens 14756,32.0 µg/mL
same,Minimum Inhibitory Concentrations,Proteus mirabilis,>64 µg/mL
same,"skin sensitization, overall","[3]; 10 mM sodium acetate solution, topical patch challenge",weak skin sensitizing response
same,Dermal irritation scores,[3]; doses of 8 mg/mL,one or higher
same,highest non-irritating dose,[3]; induction phase tests,4 mg/mL
same,challenge phase score,[3]; topical patch 4 mg/mL,did not score higher than one
